{"source": "patent US20200039930A1", "about": "“PROLINE AMIDE COMPOUNDS AND THEIR AZETIDINE ANALOGUES CARRYING A SPECIFICALLY SUBSTITUTED BENZYL RADICAL” (AbbVie Deutschland GmbH & Co. KG, priority 2017, published 2020)", "key": {"[1]": {"assay": "Metabolic stability: unbound intrinsic clearance in liver microsomes", "assay_type": "in vitro ADME", "details": "rat; liver microsomes 0.25 mg protein/mL, 0.5 μM compound, pH 7.4, 37° C.; Cl int unbound=Cl int/fu mic; compounds used as acid addition salts; read-out: Cl int, mic unb. (r) (unbound intrinsic clearance)", "experimental": "Samples of the tested compounds (0.5 μM) were preincubated together with rat liver microsomes (0.25 mg of microsomal protein/mL) in 0.05 M potassium phosphate buffer of pH 7.4 in microtiter plates at 37° C. for 5 minutes. The reaction was started by adding NADPH (1.0 mM). After 0, 5, 10, 15, 20 and 30 minutes, an aliquot was removed, the reaction was cooled and stopped by adding twice the amount of quench solution consisting of acetonitrile/methanol 1:1, and containing […] carbutamide as internal standard. The samples were frozen until analyzed. The remaining concentration of undegraded test substance was determined by liquid chromatography-tandem mass spectrometry (LC-MS/MS). The half-life (t1/2) was determined from the gradient of the ratio of the signal of (test substance/internal standard)/unit time plot, allowing the calculation of the half-life of the test substance, assuming first order kinetics, from the decrease in the concentration of the compound with time. The microsomal clearance (mClint) was calculated as follows: mClint=((ln(2)/t 1/2)/Microsomal Protein Concentration (mg/ml))*1000, leading to the unit of uL/min/mg. The scaled clearance (mClin_scaled) was calculated as mCLint_scaled=m CLint*(Microsomal Yield (mg/kg BW))/1000000*60, leading to the units L/h/kg. The Microsomal Yield is defined by the specifics of the used microsomes. Calculations were modified from refer-ences: Di, The Society for Biomolecular Screening, 2003, 453-462; Obach, D M D, 1999 vol 27. N 11, 1350-1359.\nA suspension of 0.25 mg/ml microsomal protein spiked with 0.5 μM of test compound was pipetted on one side of a HTDialysis device (HTDialysis LLC,37 Ledgewood Drive, Gales Fery Conn. 06335) separated by a membrane with a MWcut off 12-14 K. 50 mM K-Phosphate buffer (pH 7.4) was added on the other side of the well. After incubation at 37° C. for 4 h while shaking at 150 rpm, aliquots of both sides were taken, quenched with MeOH/ACN 1:1 and 0.2 μM of internal standard and frozen until analy-sis by LCMSMS.\nCl int unbound=Cl int/fu mic\nThe compounds were used in form of their respective acid addition salts."}, "5-HT2C receptor": {"target": "T1, 5-HT2C receptor (Homo sapiens, UniProt P28335)", "T1 construct": "host or cells: U2OS", "T1 sequence (P28335 33-458)": "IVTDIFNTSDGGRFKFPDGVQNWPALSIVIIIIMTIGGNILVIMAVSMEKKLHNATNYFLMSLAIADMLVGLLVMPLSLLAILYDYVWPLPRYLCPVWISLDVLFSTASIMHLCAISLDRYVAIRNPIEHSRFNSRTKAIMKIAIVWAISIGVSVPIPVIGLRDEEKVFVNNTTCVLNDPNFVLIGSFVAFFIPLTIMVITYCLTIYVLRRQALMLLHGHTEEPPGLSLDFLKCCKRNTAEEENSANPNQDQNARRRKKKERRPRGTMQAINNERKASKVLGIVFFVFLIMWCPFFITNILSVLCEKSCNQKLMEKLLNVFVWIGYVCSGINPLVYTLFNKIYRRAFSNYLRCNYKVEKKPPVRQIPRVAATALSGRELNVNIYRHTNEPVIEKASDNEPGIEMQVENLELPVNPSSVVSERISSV", "T1 sequence (P32121 whole entry partner)": "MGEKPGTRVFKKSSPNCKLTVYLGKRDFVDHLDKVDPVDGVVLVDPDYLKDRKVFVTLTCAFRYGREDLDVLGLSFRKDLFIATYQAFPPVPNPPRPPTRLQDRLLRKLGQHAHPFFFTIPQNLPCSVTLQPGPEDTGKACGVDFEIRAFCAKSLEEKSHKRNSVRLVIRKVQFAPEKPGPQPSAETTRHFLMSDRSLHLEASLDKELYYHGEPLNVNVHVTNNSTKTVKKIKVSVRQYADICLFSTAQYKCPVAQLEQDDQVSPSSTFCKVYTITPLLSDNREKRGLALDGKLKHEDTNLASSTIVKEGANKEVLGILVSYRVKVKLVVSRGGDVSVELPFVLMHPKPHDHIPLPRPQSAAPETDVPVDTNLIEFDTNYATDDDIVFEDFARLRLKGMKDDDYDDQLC", "assay": "Human 5-HT2C functional assay (beta-arrestin2 recruitment, U2OS_HTR2C_β-Arrestin cells)", "assay_type": "cell-based", "details": "compounds used as acid addition salts; for EC50: U2OS_HTR2C_β-Arrestin cells, 1.5 h incubation, read-out: EC50 5-HT2C (potency in functional assay); for Emax: relative efficacy vs response to 10 µM 5-HT or maximal effect of 5-HT (100%)", "experimental": "The functional activity of compounds of formula I was assayed by incubation with U2OS_HTR2C_β-Arrestin cells (DiscoverX, 93-0289C3) to induce beta-arrestin2 recruitment to the 5-HT2C receptor. The agonist-induced recruitment and proximity of the receptor and beta-arrestin2 leads to complementation and formation of active β-galactosidase. The enzyme complementation results in enzyme activity, which is measured following the termination of the agonist incubation using DiscoveRx's detection reagent, which contains a chemiluminescent substrate which produces a high intensity signal. Cells were plated and a medium-change to a 1% serum containing medium was performed 24 h later. The next day, test compounds were added and incubated for 1.5 h before addition of detection reagent.\nThe response produced was measured and compared with the response produced by 10 [mu]M 5-HT or the maximal effect induced by 5-HT (defined as 100%) to which it was expressed as a percentage response (relative efficacy). Dose response curves were con-structed using Graphpad Prism (Graph Software Inc.) or using in house adapted software using a 4 parameter dose response model with variable slope (fit=(Bottom+(Top−Bottom)/(1+10^((LogEC50−x)*Hill Slope))res=(y−fit)). Results are compiled in the table below."}}}
{"smiles": "COc1cc(OCc2ccc(C(F)(F)F)o2)c(F)cc1CNC(=O)[C@@H]1CCCN1", "note": "[Example 15, (2S)—N-[[5-fluoro-2-methoxy-4-[[5-(trifluoromethyl)-2-furyl]methoxy]phenyl]-methyl]pyrrolidine-2-carboxamide]", "values": [{"measurement": "CLint scaled at 0.5 μM", "setting": "[1]", "value": "1330 to 4170", "unit": "mL/min/kg"}, {"measurement": "EC50", "setting": "5-HT2C receptor", "value": "5 to 15", "unit": "nM"}, {"measurement": "Emax", "setting": "5-HT2C receptor", "value": "> 70", "unit": "%"}]}
{"smiles": "COc1cc(OCC(F)(F)C(F)F)c(F)cc1CNC(=O)[C@@H]1CCCN1C", "note": "[Example 36, (2S)—N-[[5-Fluoro-2-methoxy-4-(2,2,3,3-tetrafluoropropoxy)phenyl]methyl]-1-methyl-pyrrolidine-2-carboxamide]", "values": [{"measurement": "CLint scaled at 0.5 μM", "setting": "[1]", "value": "500 to 1330", "unit": "mL/min/kg"}, {"measurement": "EC50", "setting": "5-HT2C receptor", "value": "15 to 30", "unit": "nM"}, {"measurement": "Emax", "setting": "5-HT2C receptor", "value": "> 70", "unit": "%"}]}
{"smiles": "COc1cc(O[C@H]2CC[C@H](F)CC2)c(F)cc1CNC(=O)[C@@H]1CCCN1", "note": "[Example 17, (S)—N-(5-Fluoro-4-((trans-4-fluorocyclohexyl)oxy)-2-methoxybenzyl)pyrrolidine-2-carboxamide]", "values": [{"measurement": "CLint scaled at 0.5 μM", "setting": "[1]", "value": "< 500", "unit": "mL/min/kg"}, {"measurement": "EC50", "setting": "5-HT2C receptor", "value": "5 to 15", "unit": "nM"}, {"measurement": "Emax", "setting": "5-HT2C receptor", "value": "> 70", "unit": "%"}]}
{"smiles": "COc1cc(OCc2ccc(C(F)(F)F)nc2)c(F)cc1CNC(=O)[C@@H]1CCCN1", "note": "[Example 10, (2S)—N-[[5-fluoro-2-methoxy-4-[[6-(trifluoromethyl)-3-pyridyl]methoxy]phenyl]-methyl]pyrrolidine-2-carboxamide]", "values": [{"measurement": "CLint scaled at 0.5 μM", "setting": "[1]", "value": "500 to 1330", "unit": "mL/min/kg"}, {"measurement": "EC50", "setting": "5-HT2C receptor", "value": "15 to 30", "unit": "nM"}, {"measurement": "Emax", "setting": "5-HT2C receptor", "value": "> 70", "unit": "%"}]}
{"smiles": "COc1cc(OCC2CCC(F)(F)CC2)c(F)cc1CNC(=O)[C@@H]1CCCN1", "note": "[Example 32, (2S)—N-[[4-[(4,4-Difluorocyclohexyl)methoxy]-5-fluoro-2-methoxy-phenyl]methyl]-pyrrolidine-2-carboxamide]", "values": [{"measurement": "CLint scaled at 0.5 μM", "setting": "[1]", "value": "< 500", "unit": "mL/min/kg"}, {"measurement": "EC50", "setting": "5-HT2C receptor", "value": "5 to 15", "unit": "nM"}, {"measurement": "Emax", "setting": "5-HT2C receptor", "value": "> 70", "unit": "%"}]}
{"smiles": "COc1cc(OCCc2ccc(C(F)(F)F)cc2)c(F)cc1CNC(=O)[C@@H]1CCCN1", "note": "[Example 14, (2S)—N-[[5-Fluoro-2-methoxy-4-[2-[4-(trifluoromethyl)phenyl]ethoxy]phenyl]-methyl]pyrrolidine-2-carboxamide]", "values": [{"measurement": "CLint scaled at 0.5 μM", "setting": "[1]", "value": "1330 to 4170", "unit": "mL/min/kg"}, {"measurement": "EC50", "setting": "5-HT2C receptor", "value": "5 to 15", "unit": "nM"}, {"measurement": "Emax", "setting": "5-HT2C receptor", "value": "> 70", "unit": "%"}]}
{"smiles": "COc1cc(OCc2ccccc2F)c(F)cc1CNC(=O)[C@@H]1CCCN1", "note": "[Example 6, (2S)—N-[[5-Fluoro-4-[(2-fluorophenyl)methoxy]-2-methoxy-phenyl]methyl]-pyrrolidine-2-carboxamide]", "values": [{"measurement": "CLint scaled at 0.5 μM", "setting": "[1]", "value": "1330 to 4170", "unit": "mL/min/kg"}, {"measurement": "EC50", "setting": "5-HT2C receptor", "value": "15 to 30", "unit": "nM"}, {"measurement": "Emax", "setting": "5-HT2C receptor", "value": "> 70", "unit": "%"}]}
{"smiles": "COc1cc(OCc2cc(F)cc(F)c2F)c(F)cc1CNC(=O)[C@@H]1CCCN1", "note": "[Example 2, (2S)—N-[[5-Fluoro-2-methoxy-4-[(2,3,5-trifluorophenyl)methoxy]phenyl]methyl]-pyrrolidine-2-carboxamide]", "values": [{"measurement": "CLint scaled at 0.5 μM", "setting": "[1]", "value": "1330 to 4170", "unit": "mL/min/kg"}, {"measurement": "EC50", "setting": "5-HT2C receptor", "value": "5 to 15", "unit": "nM"}, {"measurement": "Emax", "setting": "5-HT2C receptor", "value": "> 70", "unit": "%"}]}
